Reference: publication PMC5740067 (Scientific Reports, 2017)
Entries after “also recorded” stand apart in the source; their conditions may differ. Like-named read-outs stand apart in the source and are kept apart here.

Assays:
[1] = molecular target: T1, OccJ WT (Agrobacterium tumefaciens, UniProt P0A4F8); test: biochemical; assay type: binding
T1 construct: The mature PBP OccJ (256 aa without the signal peptide) expression plasmid was obtained by cloning the occJ gene lacking the first twenty residues; hexahistidine (C); made in house; host or cells: E. coli BL21
Experimental: (§1) Binding of ligands to OccJ, NocT, LAO and protein mutants was monitored by autofluorescence by exciting the protein at a wavelength of 295 nm and monitoring the quenching of fluorescence emission of tryptophans at 335 nm. All experiments were performed at 20 °C in 96 wells plates (1/2 Area Plate-96F, Perkin Elmer) using Tecan Infinite M1000 reader (Tecan), in 50 mM Tris-HCl pH 8.0, 150 mM NaCl buffer with a fixed amount of proteins (1 µM) and increasing concentrations of ligand. […] The data were analysed using Origin® 7 software and fitted to the equation f = ΔFluorescencemax * abs(x)/(K D + abs(x)).

[2] = molecular target: T2, OccJ S91G (Agrobacterium tumefaciens, UniProt P0A4F8, S91G); test: OccJ S91G ligand binding, fluorescence titration; conditions: intrinsic protein fluorescence titration
T2 construct: The mature LAO expression plasmid, LAO-Q122A, OccJ-S91G and OccJ-N202D were chemically synthesized; pET-28a); host or cells: E. coli BL21
Experimental: as §1

[3] = molecular target: T3, NocT G97S (Agrobacterium fabrum, UniProt P35120, G97S); assay type: binding, Agrobacterium tumefaciens; conditions: intrinsic protein fluorescence titration, 20 °C, pH 8.0
T3 construct: Cloning of mature OccJ, NocT-G97S, OccJ-S91G, OccJ-N202D, LAO and LAO-Q122A; made in house; host or cells: E. coli BL21

[4] = molecular target: T4, NocT WT (Agrobacterium fabrum, UniProt P35120); conditions: fluorescence titration; octopine and nopaline; ref [6],[14]; read-out: K D (F); cited from earlier work
T4 construct: Cloning of mature OccJ, NocT-G97S, OccJ-S91G, OccJ-N202D, LAO and LAO-Q122A; made in house

[5] = molecular target: T1, OccJ WT; test: OccJ WT ligand binding, isothermal titration microcalorimetry; conditions: ITC, 20 °C
Experimental: (§2) Isothermal titration microcalorimetry experiments were performed with an ITC200 isothermal titration calorimeter from MicroCal (GE Healthcare). The experiments were carried out at 20 °C. Protein concentration in the microcalorimeter cell (0.2 mL) varied from 20 to 150 µM. Nineteen injections of 2 µL of ligand solution (amino acids, opines and octopine derivatives) at concentration ranging from 240 µM to 1.5 mM were performed at intervals of 180 s while stirring at 500 rpm. The experimental data were fitted to theoretical titration curves with software supplied by MicroCal (ORIGIN®). This software uses the relationship between the heat generated by each injection and ΔH (enthalpy change in kcal/mol), Ka (the association binding constant in M^−1), n (the number of binding sites), total protein concentration and free and total ligand concentrations.

[6] = molecular target: T4, NocT WT; assay type: binding, Agrobacterium tumefaciens; conditions: fluorescence titration; 20 °C; pH 8.0; octopine family members and analogues; read-out: Kd (F)
Experimental: as §1

[7] = molecular target: T4, NocT WT; assay type: binding, Agrobacterium tumefaciens; conditions: ITC, 20 °C
Experimental: as §2

[8] = molecular target: T5, OccJ N202D (Agrobacterium tumefaciens, UniProt P0A4F8, N202D); assay type: binding; conditions: ITC, 20 °C
T5 construct: The mature LAO expression plasmid, LAO-Q122A, OccJ-S91G and OccJ-N202D were chemically synthesized; pET-28a); host or cells: E. coli BL21
Experimental: as §2

[9] = molecular target: T2, OccJ S91G; assay type: binding; conditions: ITC, 20 °C
Experimental: as §2

[10] = molecular target: T5, OccJ N202D; assay type: binding; conditions: intrinsic protein fluorescence titration; 20 °C; pH 8.0; read-out: K D (F)
[11] = system: NocT G97S; assay type: binding, Agrobacterium tumefaciens
[12] = molecular target: T3, NocT G97S; assay type: binding, Agrobacterium tumefaciens; conditions: ITC, 20 °C
Experimental: as §2

[13] = molecular target: T6, LAO WT (Salmonella typhimurium, UniProt P02911); test: biochemical; assay type: binding, Salmonella enterica; conditions: ITC, 20 °C
T6 construct: The mature LAO expression plasmid, LAO-Q122A, OccJ-S91G and OccJ-N202D were chemically synthesized; pET-28a); host or cells: E. coli BL21
Experimental: as §2

[14] = molecular target: T7, LAO Q122A (Salmonella typhimurium, UniProt P02911, Q144A); test: LAO Q122A ligand binding, ITC; parameters: species or system Salmonella enterica; conditions: ITC, 20 °C
T7 construct: The mature LAO expression plasmid, LAO-Q122A, OccJ-S91G and OccJ-N202D were chemically synthesized; pET-28a); host or cells: E. coli BL21
Experimental: as §2

[15] = molecular target: T4, NocT WT; conditions: ITC; octopine; ref [6],[14]; read-out: K D (ITC) (converted); cited from earlier work
[16] = molecular target: LAO; parameters: method as in PMID 1400387; conditions: ref [20]; cited from earlier work
[17] = intrinsic protein fluorescence titration, 20 °C, 50 mM Tris-HCl pH 8.0, 150 mM NaCl, 1 µM protein, read-out: K D (F)
[18] = fluorescence titration, read-out: apparent dissociation constant K D

T7 sequence (P02911 23-260 Q144A): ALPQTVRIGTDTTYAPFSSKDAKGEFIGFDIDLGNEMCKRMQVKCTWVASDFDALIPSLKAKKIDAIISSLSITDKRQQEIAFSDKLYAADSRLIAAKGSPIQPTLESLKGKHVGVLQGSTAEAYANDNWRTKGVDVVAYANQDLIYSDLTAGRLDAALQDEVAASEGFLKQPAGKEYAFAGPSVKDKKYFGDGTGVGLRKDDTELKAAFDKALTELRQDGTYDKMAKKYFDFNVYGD
T1 sequence (P0A4F8 21-276): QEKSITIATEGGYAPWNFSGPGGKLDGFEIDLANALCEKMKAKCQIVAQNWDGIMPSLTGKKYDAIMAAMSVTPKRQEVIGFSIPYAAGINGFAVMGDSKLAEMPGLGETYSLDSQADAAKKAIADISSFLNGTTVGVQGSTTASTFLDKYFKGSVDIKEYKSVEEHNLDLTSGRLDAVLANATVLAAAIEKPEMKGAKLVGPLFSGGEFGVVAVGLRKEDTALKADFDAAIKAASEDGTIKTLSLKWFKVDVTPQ
T2 sequence (P0A4F8 21-276 S91G): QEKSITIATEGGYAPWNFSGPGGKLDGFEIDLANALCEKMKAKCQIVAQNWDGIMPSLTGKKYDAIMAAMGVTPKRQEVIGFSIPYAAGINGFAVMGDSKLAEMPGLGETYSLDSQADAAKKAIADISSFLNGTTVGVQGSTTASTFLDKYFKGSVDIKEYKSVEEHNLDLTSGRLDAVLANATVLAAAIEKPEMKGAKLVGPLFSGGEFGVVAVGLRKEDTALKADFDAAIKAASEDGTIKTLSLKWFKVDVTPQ
T4 sequence (P35120 26-283): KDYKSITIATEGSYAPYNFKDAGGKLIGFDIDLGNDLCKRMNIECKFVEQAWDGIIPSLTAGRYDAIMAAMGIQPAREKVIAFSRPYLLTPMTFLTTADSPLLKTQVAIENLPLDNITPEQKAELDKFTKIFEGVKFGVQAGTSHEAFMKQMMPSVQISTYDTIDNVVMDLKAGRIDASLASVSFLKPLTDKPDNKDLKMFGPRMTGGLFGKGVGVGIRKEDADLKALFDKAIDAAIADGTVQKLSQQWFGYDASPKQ
T5 sequence (P0A4F8 21-276 N202D): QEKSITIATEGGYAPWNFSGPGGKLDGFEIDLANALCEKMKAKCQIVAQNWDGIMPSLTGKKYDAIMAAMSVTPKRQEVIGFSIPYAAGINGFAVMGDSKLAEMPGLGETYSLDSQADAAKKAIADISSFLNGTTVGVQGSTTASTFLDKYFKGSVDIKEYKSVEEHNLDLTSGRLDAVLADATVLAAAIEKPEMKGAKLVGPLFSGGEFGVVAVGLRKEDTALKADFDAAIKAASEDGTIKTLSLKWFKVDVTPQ
T3 sequence (P35120 26-283 G97S): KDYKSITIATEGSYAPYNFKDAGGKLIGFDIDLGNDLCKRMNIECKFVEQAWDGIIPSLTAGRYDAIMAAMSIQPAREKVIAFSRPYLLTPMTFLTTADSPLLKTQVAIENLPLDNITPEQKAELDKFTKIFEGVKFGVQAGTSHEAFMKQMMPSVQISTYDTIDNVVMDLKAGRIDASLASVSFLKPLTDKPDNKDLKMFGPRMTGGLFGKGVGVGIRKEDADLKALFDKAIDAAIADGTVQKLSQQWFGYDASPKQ
T6 sequence (P02911 23-260): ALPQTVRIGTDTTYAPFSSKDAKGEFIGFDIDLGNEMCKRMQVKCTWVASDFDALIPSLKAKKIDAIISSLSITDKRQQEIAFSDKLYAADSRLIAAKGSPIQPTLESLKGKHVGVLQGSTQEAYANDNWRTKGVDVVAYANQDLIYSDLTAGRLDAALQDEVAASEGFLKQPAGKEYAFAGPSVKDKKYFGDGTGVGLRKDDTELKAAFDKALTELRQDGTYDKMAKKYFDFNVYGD

NC(N)=NCCC[C@H](N[C@H](CCC(=O)O)C(=O)O)C(=O)O [nopaline]
K D (F) ([1]; intrinsic protein fluorescence titration, 20 °C, 50 mM Tris-HCl pH 8.0, 150 mM NaCl, 1 µM protein): No fluorescence intensity change was detected; also recorded: no interaction
K D (F) ([2]; 20 °C, pH 8.0): not a ligand
K D (F) [3]: abolished the nopaline binding ability
Kd [4]: 3.7 ± 0.6 µM

NC(N)=NCCC[C@H](NCC(=O)O)C(=O)O [noroctopine]
Kd [1, 17]: 0.19 ± 0.05 µM
fold better affinity of OccJ compared with arginine or ornithine alone ([1]; opine analogue versus its amino acid): 10 fold
Enthalpy (ΔH) [5]: -20.1 kJ/mol
Entropic contribution (-TΔS) [5]: -18.27 kJ/mol
Entropy (ΔS) [5]: 14.8 cal/mol/deg
Free enthalpy (ΔG) [5]: -38.37 kJ/mol
Kd [5]: 0.15 ± 0.01 µM
Kd [6]: 33.4 ± 2.7 µM
Enthalpy (ΔH) [7]: 3.65 kJ/mol
Entropic contribution (-TΔS) [7]: -26.74 kJ/mol
Entropy (ΔS) [7]: 21.8 cal/mol/deg
Free enthalpy (ΔG) [7]: -23.09 kJ/mol
Kd [7]: 78 ± 9 µM

NCCC[C@H](NCC(=O)O)C(=O)O [noroctopinic acid]
Enthalpy (ΔH) [5]: -30.13 kJ/mol
Entropic contribution (-TΔS) [5]: -8.092 kJ/mol
Entropy (ΔS) [5]: 6.60 cal/mol/deg
Free enthalpy (ΔG) [5]: -38.23 kJ/mol
Kd [5]: 0.15 ± 0.01 µM
Kd [6]: 19.3 ± 1.37 µM
Enthalpy (ΔH) [7]: 2.59 kJ/mol
Entropic contribution (-TΔS) [7]: -28.58 kJ/mol
Entropy (ΔS) [7]: 23.3 cal/mol/deg
Free enthalpy (ΔG) [7]: -25.98 kJ/mol
Kd [7]: 23 ± 5 µM

C[C@@H](N[C@@H](CCCN=C(N)N)C(=O)O)C(=O)O [octopine]
Kd [1, 18]: 0.004 ± 0.001 µM
Kd [1, 17]: 0.004 ± 0.0001 µM
Enthalpy (ΔH) [5]: -20.24 kJ/mol
Entropic contribution (-TΔS) [5]: -25.02 kJ/mol
Entropy (ΔS) [5]: 20.4 cal/mol/deg
Free enthalpy (ΔG) [5]: -45.258 kJ/mol
Kd [5]: 0.009 µM
fold lower affinity of OccJ-S91G than OccJ [2]: over 7,000 fold
Kd ([2]; 20 °C, pH 8.0, read-out: K D (F)): 29.9 ± 3.8 µM
Enthalpy (ΔH) [8]: -17.24 kJ/mol
Entropic contribution (-TΔS) [8]: -26.55 kJ/mol
Entropy (ΔS) [8]: 21.5 cal/mol/deg
Free enthalpy (ΔG) [8]: -43.786 kJ/mol
Kd [8]: 0.016 µM
Enthalpy (ΔH) [9]: -3.04 kJ/mol
Entropic contribution (-TΔS) [9]: -23.3 kJ/mol
Entropy (ΔS) [9]: 19 cal/mol/deg
Free enthalpy (ΔG) [9]: -26.34 kJ/mol
Kd [9]: 20 µM
Kd [10]: 0.006 ± 0.001 µM
Kd ([3]; read-out: K D (F)): 63.8 ± 13.8 µM
fold lower affinity of NocT G97S compared with the WT [11]: 10 fold
Enthalpy (ΔH) [12]: 2.87 kJ/mol
Entropic contribution (-TΔS) [12]: -26.86 kJ/mol
Entropy (ΔS) [12]: 21.9 cal/mol/deg
Free enthalpy (ΔG) [12]: -23.99 kJ/mol
Kd [12]: 52 µM
K D (ITC) [13]: No interaction; also recorded: cannot bind
Enthalpy (ΔH) [14]: -13.88 kJ/mol
Entropic contribution (-TΔS) [14]: -11.18 kJ/mol
Entropy (ΔS) [14]: 9.12 cal/mol/deg
Free enthalpy (ΔG) [14]: -25.07 kJ/mol
Kd ([14]; read-out: K D (ITC)): 34 ± 5 µM
Kd [4]: 6.1 ± 0.7 µM
Kd [15]: 9.9 µM

C[C@@H](N[C@@H](CCCN)C(=O)O)C(=O)O [octopinic acid]
Kd [1, 18]: 0.017 ± 0.003 µM
Kd [1, 17]: 0.017 ± 0.003 µM
Enthalpy (ΔH) [5]: -39.94 kJ/mol
Entropic contribution (-TΔS) [5]: -1.72 kJ/mol
Entropy (ΔS) [5]: 1.40 cal/mol/deg
Free enthalpy (ΔG) [5]: -41.66 kJ/mol
Kd [5]: 0.038 ± 0.007 µM
Kd [6]: 1.8 ± 0.3 µM
Enthalpy (ΔH) [7]: -15.31 kJ/mol
Entropic contribution (-TΔS) [7]: -14.72 kJ/mol
Entropy (ΔS) [7]: 12.0 cal/mol/deg
Free enthalpy (ΔG) [7]: -30.02 kJ/mol
Kd [7]: 4.4 ± 0.4 µM

NCCC[C@H](N)C(=O)O [ornithine]
Kd [1]: 31.2 ± 3.5 µM
Enthalpy (ΔH) [5]: -4.611 kJ/mol
Entropic contribution (-TΔS) [5]: -19.99 kJ/mol
Entropy (ΔS) [5]: 16.3 cal/mol/deg
Free enthalpy (ΔG) [5]: -24.6 kJ/mol
Kd [5]: 40.5 µM
K D (F) ([2]; 20 °C, pH 8.0): can no longer bind
previous reported affinity [16]: nanomolar range

homo-octopine
Enthalpy (ΔH) [5]: -31.84 kJ/mol
Entropic contribution (-TΔS) [5]: -3.37 kJ/mol
Entropy (ΔS) [5]: 2.75 cal/mol/deg
Free enthalpy (ΔG) [5]: -35.22 kJ/mol
Enthalpy (ΔH) [7]: -16.03 kJ/mol
Entropic contribution (-TΔS) [7]: -9.297 kJ/mol
Entropy (ΔS) [7]: 7.58 cal/mol/deg
Free enthalpy (ΔG) [7]: -25.33 kJ/mol
